Experiment [1] has as its system Streptococcus pyogenes C203. Kind of experiment: Protection of mice experimentally infected with Streptococcus pyogenes C203. In kind it is in vivo. The following applies: Streptococcus pyogenes, doses given 1 and 4 hours postinfection, read-out: ED50. As to the method:
The formula 1 compounds have shown in vivo antimicrobial activity against experimentally-induced infections in laboratory animals. When two doses of test compound were administered to mice experimentally infected with Streptococcus pyogenes C203, the activity observed was measured as an ED50 value [effective dose in mg/kg to protect 50% of the test animals: see Warren Wick, et al., J. Bacteriol. 81, 233-235 (1961)].
^a mg/kg × 2; doses given 1 and 4 hours postinfection

The subject of experiment [2] is Staphylococcus epidermidis 222. Kind of experiment: MIC, standard agar-dilution assay, S. epidermidis 222. The class given is cell-based. As to the method: (§1) The MIC's in Table II were determined by standard agar-dilution assays. The MIC's in Table III were obtained using conventional broth-dilution microtiter tests.
The test system of experiment [3] is Haemophilus influenzae C.L. Kind of experiment: MIC, standard agar-dilution assay, H. influenzae C.L. In kind it is cell-based. As to the method:
as §1

For experiment [4], the system named is Staphylococcus aureus X400. The experiment in a line: MIC, standard agar-dilution assay, S. aureus X400. In kind it is cell-based. The protocol:
as §1

The test system of experiment [5] is Klebsiella pneumoniae X68. The experiment in a line: MIC, standard agar-dilution assay, K. pneumoniae X68. In kind it is cell-based. The following applies: agar-dilution, read-out: MIC. As to the method:
as §1

Experiment [6] concerns Streptococcus pneumoniae Park I. The experiment in a line: MIC, standard agar-dilution assay, S. pneumoniae Park I. The note with it: Streptococcus pneumoniae. The class given is cell-based. As to the method:
as §1

For experiment [7], the system named is Haemophilus influenzae 76. Kind of experiment: MIC, standard agar-dilution assay, H. influenzae 76. In kind it is cell-based. As to the method:
as §1

Experiment [8] deals with Pseudomonas aeruginosa X239. The experiment in a line: MIC, standard agar-dilution assay, P. aeruginosa X239. The following applies: agar-dilution, read-out: MIC. In kind it is cell-based. As to the method: as §1
The test system of experiment [9] is Staphylococcus aureus S13E. Kind of experiment: MIC, standard agar-dilution assay, S. aureus S13E. In kind it is cell-based. The protocol: as §1
The test system of experiment [10] is Staphylococcus aureus V41. Kind of experiment: MIC, standard agar-dilution assay, S. aureus V41. The class given is cell-based. The following applies: Staphylococcus aureus, V41. The protocol: as §1
The subject of experiment [11] is Streptococcus pyogenes C203. Kind of experiment: MIC, standard agar-dilution assay, S. pyogenes C203. In kind it is cell-based. The following applies: Streptococcus pyogenes, C203. As to the method: as §1
The subject of experiment [12] is Escherichia coli EC14. Kind of experiment: MIC, standard agar-dilution assay, E. coli EC14. The class given is cell-based. The note with it: agar-dilution, read-out: MIC. The protocol:
as §1

Experiment [13] concerns Staphylococcus aureus X1.1. The experiment in a line: MIC, standard agar-dilution assay, S. aureus X1.1. The class given is cell-based. As to the method: as §1
Experiment [14] relates to Staphylococcus epidermidis EPI1. Kind of experiment: MIC, standard agar-dilution assay, S. epidermidis EPI1. In kind it is cell-based. As to the method:
as §1

Experiment [15] relates to Streptococcus Group D X66. The experiment in a line: MIC, standard agar-dilution assay, Streptococcus Group D X66. In kind it is cell-based. As to the method: as §1
The subject of experiment [16] is Streptococcus Group D 2041. Kind of experiment: MIC, standard agar-dilution assay, Streptococcus Group D 2041. In kind it is cell-based. The following applies: GROUPD2041. The protocol: as §1
Where [17] appears, read: agar-dilution, ampicillin-sensitive strain, read-out: MIC.
The mark [18] stands for this setting: agar-dilution, ampicillin-resistant strain, read-out: MIC.

≈ marks a conversion by molar mass, not a printed value. Read-outs that look alike come from different tables or passages of the source.

As for `CCC1OC(=O)CC(O)C(C)C(OC2OC(C)C(O)C(N(C)C)C2O)C(CCOc2ccccc2)CC(C)C(=O)C=CC(C)=CC1COC1OC(C)C(N=[N+]=[N-])C(OC)C1OC` (stereo not drawn) [Compound 25, 4"-Azido-4"-deoxy-20-DH-20-O-phenyl-desmycosin], the ED50 in experiment [1] (C203, oral) is 64 mg/kg; in [1] (C203, sc, subcutaneous), > 10 mg/kg. Besides, the MIC was 4 µg/mL (≈ 4.57 µM) in experiment [2]; > 128 µg/mL in [3] (setting [17]); 4 µg/mL (≈ 4.57 µM) in experiment [4]; > 128 µg/mL in experiment [5]; 8 µg/mL (≈ 9.14 µM) in [6]; > 128 µg/mL in experiment [7] (setting [18]). Further, the MIC is > 128 µg/mL in experiment [8]; 4 µg/mL (≈ 4.57 µM) in [9]; 4 µg/mL (≈ 4.57 µM) in experiment [10]; 8 µg/mL (≈ 9.14 µM) in experiment [11]; > 128 µg/mL in [12]; 4 µg/mL (≈ 4.57 µM) in experiment [13]. For the same compound, the MIC came to 4 µg/mL (≈ 4.57 µM) in experiment [14]; 16 µg/mL (≈ 18.3 µM) in [15] (agar-dilution, read-out: MIC); 64 µg/mL (≈ 73.1 µM) in [16].
Turning to `CCC1OC(=O)CC(O)C(C)C(OC2OC(C)C(O)C(N(C)C)C2O)C(CCOc2ccccc2)CC(C)C(=O)C=CC(C)=CC1COC1OC(C)C(N2CCCCC2)C(OC)C1OC` (stereo not drawn) [Compound 42, 4"-Deoxy-20-DH-20-O-phenyl-4"-(piperidin-1-yl)desmycosin], the ED50 in [1] (C203, oral) is > 100 mg/kg; in experiment [1] (C203, sc, subcutaneous) it was > 10 mg/kg. In addition, the MIC in experiment [2] was 2 µg/mL (≈ 2.18 µM); in experiment [3] (setting [17]) it was > 128 µg/mL; in [4], 4 µg/mL (≈ 4.36 µM); in experiment [5], > 128 µg/mL; in experiment [6] it was 2 µg/mL (≈ 2.18 µM); in experiment [7] (setting [18]), > 128 µg/mL. The MIC in experiment [8] is > 128 µg/mL; in experiment [9], 2 µg/mL (≈ 2.18 µM); in [10] it was 4 µg/mL (≈ 4.36 µM); in [11] it was 2 µg/mL (≈ 2.18 µM); in experiment [12], > 128 µg/mL; in [13], 4 µg/mL (≈ 4.36 µM). Besides, the figures for the MIC in experiment [14], in experiment [15] and in experiment [16] were 4 µg/mL (≈ 4.36 µM), 16 µg/mL (≈ 17.4 µM) and 32 µg/mL (≈ 34.9 µM), respectively.
With `CCC1OC(=O)CC(O)C(C)C(OC2OC(C)C(O)C(N(C)C)C2O)C(CCOc2ccccc2)CC(C)C(=O)C=CC(C)=CC1COC1OC(C)C(OS(C)(=O)=O)C(OC)C1OC` (stereo not drawn) [Compound 15, 4"-O-Methanesulfonyl-20-DH-20-O-Phenyl-desmycosin], the ED50 was 29.3 mg/kg in [1] (C203, oral) and > 10 mg/kg in experiment [1] (C203, sc, subcutaneous). The MIC was 1 µg/mL (≈ 1.08 µM) in experiment [2]; 128 µg/mL (≈ 138 µM) in [3] (setting [17]); 2 µg/mL (≈ 2.15 µM) in experiment [4]; > 128 µg/mL in experiment [5]; 8 µg/mL (≈ 8.62 µM) in [6] (agar-dilution, read-out: MIC); 128 µg/mL (≈ 138 µM) in experiment [7] (setting [18]). Moreover, the MIC in [8] is > 128 µg/mL; in [9] it was 2 µg/mL (≈ 2.15 µM); in experiment [10], 2 µg/mL (≈ 2.15 µM); in experiment [11] it was 4 µg/mL (≈ 4.31 µM); in [12], > 128 µg/mL; in experiment [13], 2 µg/mL (≈ 2.15 µM). Besides, the values for the MIC in experiment [14], in experiment [15] and in [16] were 2 µg/mL (≈ 2.15 µM), 16 µg/mL (≈ 17.2 µM) and 32 µg/mL (≈ 34.5 µM), respectively.
On to `CCC1OC(=O)CC(O)C(C)C(OC2OC(C)C(O)C(N(C)C)C2O)C(CCOc2ccccc2)CC(C)C(=O)C=CC(C)=CC1COC1OC(C)CC(=O)C1OC` (stereo not drawn) [Compound 52, 4"-Deoxy-3"-oxo-20-DH-20-O-phenyl-lactenocin], for which the ED50 was found to be 79.4 mg/kg in experiment [1] (C203, oral) and 10 mg/kg in experiment [1] (C203, sc, subcutaneous). In addition, the MIC in experiment [2] is 0.25 µg/mL (≈ 0.306 µM); in experiment [3] it was 64 µg/mL (≈ 78.2 µM); in [4], 0.5 µg/mL (≈ 0.611 µM); in experiment [5], > 128 µg/mL; in [6], 2 µg/mL (≈ 2.44 µM); in [7], 64 µg/mL (≈ 78.2 µM). For the same compound, the MIC in experiment [8] is > 128 µg/mL; in [9], 0.5 µg/mL (≈ 0.611 µM); in experiment [10] it was 0.5 µg/mL (≈ 0.611 µM); in experiment [11], 1 µg/mL (≈ 1.22 µM); in experiment [12], > 128 µg/mL; in experiment [13] it was 0.5 µg/mL (≈ 0.611 µM). Moreover, the results for the MIC in experiment [14], in experiment [15] and in [16] were 0.5 µg/mL (≈ 0.611 µM), 2 µg/mL (≈ 2.44 µM) and 2 µg/mL (≈ 2.44 µM), respectively.
As for `CCC1OC(=O)CC(O)C(C)C(OC2OC(C)C(O)C(N(C)C)C2O)C(CCOc2ccccc2)CC(C)C(=O)C=CC(C)=CC1COC1OC(C)C(NCc2ccccc2)C(OC)C1OC` (stereo not drawn) [Compound 47, 4"-Benzylamino-4"-deoxy-20-DH-20-O-phenyl-desmycosin], the ED50 in experiment [1] (C203, oral) is 70.7 mg/kg; in experiment [1] (C203, sc, subcutaneous), > 10 mg/kg. For the same compound, the MIC in [2] was 2 µg/mL (≈ 2.13 µM); in experiment [3] (setting [17]), 128 µg/mL (≈ 136 µM); in [4] it was 2 µg/mL (≈ 2.13 µM); in [5], > 128 µg/mL; in [6], 2 µg/mL (≈ 2.13 µM); in experiment [7] (setting [18]), 128 µg/mL (≈ 136 µM). Moreover, the MIC is > 128 µg/mL in [8]; 2 µg/mL (≈ 2.13 µM) in experiment [9]; 2 µg/mL (≈ 2.13 µM) in [10]; 2 µg/mL (≈ 2.13 µM) in experiment [11]; > 128 µg/mL in [12]; 2 µg/mL (≈ 2.13 µM) in experiment [13]. Further, the MIC in experiment [14] amounted to 2 µg/mL (≈ 2.13 µM); in experiment [15], 8 µg/mL (≈ 8.52 µM); in experiment [16] it was 32 µg/mL (≈ 34.1 µM).
With `CCC1OC(=O)CC(O)C(C)C(OC2OC(C)C(O)C(N(C)C)C2O)C(CCOc2ccccc2)CC(C)C(=O)C=CC(C)=CC1COC1OC(C)C(=O)C(OC)C1OC` (stereo not drawn) [Compound 2, 4"-Oxo-20-DH-20-O-phenyl-desmycosin], the ED50 in experiment [1] (C203, oral) was 85.6 mg/kg; in experiment [1] (C203, sc, subcutaneous), > 10 mg/kg. For the same compound, the MIC was 0.25 µg/mL (≈ 0.295 µM) in experiment [2]; 64 µg/mL (≈ 75.5 µM) in experiment [3]; 0.5 µg/mL (≈ 0.59 µM) in [4]; > 128 µg/mL in [5]; 4 µg/mL (≈ 4.72 µM) in [6]; 64 µg/mL (≈ 75.5 µM) in [7]. Further, the MIC in experiment [8] is > 128 µg/mL; in experiment [9], 0.5 µg/mL (≈ 0.59 µM); in experiment [10], 0.5 µg/mL (≈ 0.59 µM); in experiment [11], 2 µg/mL (≈ 2.36 µM); in experiment [12] it was > 128 µg/mL; in experiment [13], 0.5 µg/mL (≈ 0.59 µM). The MIC in experiment [14] is 1 µg/mL (≈ 1.18 µM); in [15], 4 µg/mL (≈ 4.72 µM); in experiment [16] it was 8 µg/mL (≈ 9.43 µM).

The values are drawn from patent US4920103A, “Modifications of mycinose and 3-O-demethylmycinose in tylosin-type macrolides” (Eli Lilly and Company, priority 1986, dated 1990).
